Data: patent US20110224229A1, “Novel Crystalline Form” (AstraZeneca AB, priority 2010, published 2011)
Entries after “also recorded” stand apart in the source; their conditions may differ.

Key:
[1] = Humidity interaction, Gravimetrical Vapour Sorption (GVS); assay type: physicochemical; conditions: for hygroscopicity, defined as the water uptake by a dried sample when the relative humidity is increased from 0% to 80%: 0% to 80% RH at 25° C.; for hygroscopicity (in words) / water uptake following exposure to 80% relative humidity (RH): GVS, 80% RH
Method: The gravimetric responses of test samples to changes in humidity were investigated using a TGA 5000 (TA Instruments) Gravimetrical Vapour Sorption (GVS). The temperature was held at 25° C. throughout the experiments. The relative humidity (RH) was raised in steps (of 5 or 10%) up to 90% RH and lowered back to 0% RH in two cycles. Each level of RH was held until the equilibrium condition (sample weight change<0.0005 wt % per 10 minutes) was reached. 5-10 mg of the test sample was placed in the cup and evaluated. The hygroscopicity was calculated as the relative change in weight of the sample between 0% RH at the start of the second cycle and 80% RH during the increase of humidity in the second cycle.
The hygroscopicity of a sample is dependent on factors in addition to the inherent properties of the pure solid form itself, for example the purity and the crystallinity of the sample will have some impact on the result.

[2] = Slurrying in water or solvents, hydrate/solvate formation; assay type: physicochemical
[3] = target: T1, Human Neutrophil Elastase (HNE) (Homo sapiens, UniProt P08246); experiment: Human Neutrophil Elastase Quenched-FRET Assay; assay type: biochemical; conditions: compound dissolved in DMSO; n=7; read-out: IC50 value for inhibition of human neutrophil elastase activity
T1 construct: Human Neutrophil Elastase (HNE) purified from serum; purchased Calbiochem 324681; host or cells: natural source
T1 sequence (P08246 30-267): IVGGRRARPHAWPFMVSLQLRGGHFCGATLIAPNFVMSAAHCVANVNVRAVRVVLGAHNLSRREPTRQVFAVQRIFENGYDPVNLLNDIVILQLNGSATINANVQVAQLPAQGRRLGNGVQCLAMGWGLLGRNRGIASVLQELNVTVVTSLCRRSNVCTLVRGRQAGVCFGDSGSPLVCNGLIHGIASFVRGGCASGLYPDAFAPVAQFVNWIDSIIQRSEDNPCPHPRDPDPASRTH
Method: The assay uses Human Neutrophil Elastase (HNE) purified from serum (Calbiochem art. 324681; Ref. Baugh, R. J. et al., 1976, Biochemistry. 15, 836-841). HNE was stored in 50 mM sodium acetate (NaOAc), 500 mM sodium chloride (NaCl), pH 5.5 with added 50% glycerol at −20° C. The protease substrate used was Elastase Substrate V Fluorogenic, MeOSuc-AAPV-AMC (Calbiochem art. 324740; Ref. Castillo, M. J. et al., 1979, Anal. Biochem. 99, 53-64). The substrate was stored in dimethyl sulfoxide (DMSO) at −20° C. The assay additions were as follows: Test compounds and controls were added to black 96-well flat-bottom plates (Greiner 655076), 1.0 μL in 100% DMSO, followed by 30 μL HNE in assay buffer with 0.01% Triton (trade mark) X-100 detergent. The assay buffer constitution was: 100 mM Tris(hydroxymethyl)aminomethane (TRIS) (pH 7.5) and 500 mM NaCl. The enzyme and the compounds were incubated at room temperature for 15 minutes. Then 30 μl substrate in assay buffer was added. The assay was incubated for 90 minutes at room temperature. The concentrations of HNE enzyme and substrate during the incubation were 0.17 nM and 100 μM, respectively. […] Fluorescence was measured on a Wallac EnVision instrument at settings: Excitation 380 nm, Emission 460 nm. IC50 values were determined using Xlfit curve fitting using model 203.

SMILES: CCNC(=O)c1nc(-c2ccnn2-c2ccc(C#N)cc2)c(C)n(-c2cccc(C(F)(F)F)c2)c1=O [Compound (I) Form A, 6-[2-(4-Cyano-phenyl)-2H-pyrazol-3-yl]-5-methyl-3-oxo-4-(3-trifluoromethyl-phenyl)-3,4-dihydro-pyrazine-2-carboxylic acid ethylamide Form A]
- hygroscopicity, defined as the water uptake by a dried sample when the relative humidity is increased from 0% to 80% [1]: 1.6 % (w/w)
- hygroscopicity (in words) [1]: slightly hygroscopic; also recorded: non-hygroscopic
- water uptake following exposure to 80% relative humidity (RH) [1]: about 1.6 % by weight
- solvate/hydrate formation when slurried in water, ethanol or acetonitrile ([2]; slurried in water, ethanol or acetonitrile, XRPD): forms variable, non-stoichiometric solvates with acetonitrile or ethanol and hydrates with water

SMILES: CCNC(=O)c1nc(-c2ccnn2-c2ccc(C#N)cc2)c(C)n(-c2cccc(C(F)(F)F)c2)c1=O [Compound (I) Form B, 6-[2-(4-Cyano-phenyl)-2H-pyrazol-3-yl]-5-methyl-3-oxo-4-(3-trifluoromethyl-phenyl)-3,4-dihydro-pyrazine-2-carboxylic acid ethylamide Form B]
- hygroscopicity, defined as the water uptake by a dried sample when the relative humidity is increased from 0% to 80% [1]: 0.08 % (w/w)
- hygroscopicity (in words) [1]: substantially non-hygroscopic
- water uptake following exposure to 80% relative humidity (RH) [1]: about 0.08 % by weight
- hydrate formation when slurried in water ([2]; slurried in water for 4 weeks): did not form hydrates

SMILES: CCNC(=O)c1nc(-c2ccnn2-c2ccc(C#N)cc2)c(C)n(-c2cccc(C(F)(F)F)c2)c1=O [Compound (I), 6-[2-(4-Cyano-phenyl)-2H-pyrazol-3-yl]-5-methyl-3-oxo-4-(3-trifluoromethyl-phenyl)-3,4-dihydro-pyrazine-2-carboxylic acid ethylamide]
- IC50 [3]: 0.27 nM
